# Measurements from patent publication US4446325A, “1,4-Dihydropyridine compounds” (priority 1981, dated 1984).
# How the values were obtained:
# [1] = test system: enucleated heart of guinea-pig; assay: Effect on heart systole, enucleated heart of guinea-pig (Langendorf method)
# Method: (§1) The effects of the compounds of this invention on the heat systole and the perfusion volume in the coronary artery in enucleated heart of guinea-pig were determined in accordance with the Langendorf method.
# femoral artery = assay: Blood flow increasing activity in femoral artery of anesthetized dog (intravenous); assay type: in vivo; settings: i.v.
# Method: (§2) A dog was anesthetized with pentobarital sodium at a dose of 30 mg/kg (intravenous injection) and, under artificial respiration, the blood flow in the coronary, vertebral and femoral arteries was determined using an electromagnetic blood-flow meter. The blood pressure was also measured simultaneously. The test compound was dissolved in ethanol at a concentration of 1% by weight of the compound and then diluted to a volume of 10 times with a 80% aqueous solution of polyethylene glycol 400. The resulting solution was further diluted with a 0.9% physiological saline solution and administered intravenously into the femoral vein at a dose shown in Tables 1 and 2.
# [2] = background statement; cited from earlier work
# coronary artery = assay: Blood flow increasing activity in coronary artery of anesthetized dog (intravenous); assay type: in vivo; settings: i.v.
# Method: as §2
# vertebral artery = assay: Blood flow increasing activity in vertebral artery of anesthetized dog (intravenous); assay type: in vivo; settings: i.v.
# Method: as §2
# [3] = background statement; cited from earlier work; remark: listed apart in the source
# blood pressure = assay: Blood pressure measured simultaneously with blood flow in anesthetized dog; assay type: in vivo; settings: i.v.
# Method: as §2
# [4] = test system: coronary artery in enucleated heart of guinea-pig; assay: Effect on perfusion volume in coronary artery, enucleated heart of guinea-pig (Langendorf method)
# Method: as §1
# [5] = 3 mg/kg, Table 2 (separate test)
smiles,measurement,setting,value
"COC(=O)C1=C(C)NC(C)=C(C(=O)OC)C1c1ccccc1[N+](=O)[O-] [Compound H, Dimethyl 2,6-dimethyl-4-(2-nitrophenyl)-1,4-dihydropyridine-3,5-dicarboxylate, reference compound]",Effects on Heart Systole: Duration of Effect,[1]; dose 1 × 10^-6 g,14.5 min
same,Effects on Heart Systole: Duration of Effect,[1]; dose 1 × 10^-7 g,2.9 min
same,"Duration of Activity, Femoral Artery","femoral artery; 1 mg/kg, Table 1",6.0
same,"Total Increase in Blood Flow, Femoral Artery","femoral artery; 1 mg/kg, Table 1",34 mL
same,"Duration of Activity, Femoral Artery","femoral artery; 3 mg/kg, Table 1",21.5
same,"Total Increase in Blood Flow, Femoral Artery","femoral artery; 3 mg/kg, Table 1",618 mL
same,"Duration of Activity, Femoral Artery",femoral artery; [5],12
same,"Total Increase in Blood Flow, Femoral Artery",femoral artery; [5],119 mL
same,"Duration of Activity, Femoral Artery","femoral artery; 10 mg/kg, Table 2",54
same,"Total Increase in Blood Flow, Femoral Artery","femoral artery; 10 mg/kg, Table 2",825 mL
same,duration of vasodilating activity,[2],still unsatisfactory
same,"Duration of Activity, Coronary Artery","coronary artery; 1 mg/kg, Table 1",3.9
same,"Total Increase in Blood Flow, Coronary Artery","coronary artery; 1 mg/kg, Table 1",30 mL
same,"Duration of Activity, Coronary Artery","coronary artery; 3 mg/kg, Table 1",9.3
same,"Total Increase in Blood Flow, Coronary Artery","coronary artery; 3 mg/kg, Table 1",107 mL
same,"Duration of Activity, Coronary Artery",coronary artery; [5],11
same,"Total Increase in Blood Flow, Coronary Artery",coronary artery; [5],146 mL
same,"Duration of Activity, Coronary Artery","coronary artery; 10 mg/kg, Table 2",40
same,"Total Increase in Blood Flow, Coronary Artery","coronary artery; 10 mg/kg, Table 2",536 mL
same,"Duration of Activity, Vertebral Artery","vertebral artery; 1 mg/kg, Table 1",8.0
same,"Total Increase in Blood Flow, Vertebral Artery","vertebral artery; 1 mg/kg, Table 1",66 mL
same,"Duration of Activity, Vertebral Artery","vertebral artery; 3 mg/kg, Table 1",16.0
same,"Total Increase in Blood Flow, Vertebral Artery","vertebral artery; 3 mg/kg, Table 1",190 mL
same,"Duration of Activity, Vertebral Artery",vertebral artery; [5],15
same,"Total Increase in Blood Flow, Vertebral Artery",vertebral artery; [5],131 mL
same,"Duration of Activity, Vertebral Artery","vertebral artery; 10 mg/kg, Table 2",46
same,"Total Increase in Blood Flow, Vertebral Artery","vertebral artery; 10 mg/kg, Table 2",640 mL
same,side-effects,[3],still unsatisfactory
same,blood pressure lowering activity,blood pressure,found to have a blood pressure lowering activity
same,Effects on Coronary Artery: Duration of Effect,[4]; dose 1 × 10^-6 g,21.3 min
same,Effects on Coronary Artery: Total Perfusion Volume,[4]; dose 1 × 10^-6 g,192.8 drops
same,Effects on Coronary Artery: Duration of Effect,[4]; dose 1 × 10^-7 g,17.2 min
same,Effects on Coronary Artery: Total Perfusion Volume,[4]; dose 1 × 10^-7 g,91.2 drops
